Results: patent US10238661B2, “Fused, spirocyclic heteroaromatic compounds for the treatment of bacterial infections” (priority 2014, dated 2019)
Values after ≈ are worked out from the molar mass of the structure shown. Values joined by “and” are separate entries in the source; they are usually repeats but may differ in a detail not shown here. Equal entries are not always repeated. Where two headings read alike, the source gives them in different places.

How the values were obtained:
Mycoplasma hominis = assay: microbe, parasite or virus in culture; type: cell-based
Mycoplasma pneumoniae = assay: Broth microdilution MIC assay (CLSI M43-A), M. pneumoniae; type: cell-based; details: for MIC50 / MIC90 / MIC Range: M. pneumoniae isolates, n = 12
Yersinia pestis = assay: microbe, parasite or virus in culture; type: cell-based
Mycoplasma genitalium = assay: microbe, parasite or virus in culture; type: cell-based; details: for MIC: Mycoplasmoides genitalium
Brucella melitensis = assay: microbe, parasite or virus in culture; type: cell-based
Burkholderia mallei = assay: microbe, parasite or virus in culture; type: cell-based; details: Burkholderia mallei
Brucella suis = assay: microbe, parasite or virus in culture; type: cell-based
Bacillus anthracis = assay: microbe, parasite or virus in culture; type: cell-based
Francisella tularensis = assay: microbe, parasite or virus in culture; type: cell-based
[1] = system: Burkholderia pseudomallei; assay: microbe, parasite or virus in culture; type: cell-based
Ureaplasma species [2] = assay: microbe, parasite or virus in culture; type: cell-based, Ureaplasma urealyticum, Ureaplasma parvum; details: for MIC50 / MIC90 / MIC: Ureaplasma; for MIC: ATCC33175
Ureaplasma species [3] = details: Ureaplasma urealyticum ATCC 33175; CLSI M43-A acceptable QC range; cited from earlier work
[4] = M. pneumoniae M-129 QC Strain ATCC 29342-B7, read-out: MIC
[5] = M. pneumoniae isolate 51494, read-out: MIC
[6] = M. pneumoniae isolate 53706, read-out: MIC
[7] = M. pneumoniae isolate 53938, read-out: MIC
[8] = M. pneumoniae isolate 54484, macrolide-resistant, read-out: MIC
[9] = M. pneumoniae isolate 54506, macrolide-resistant, read-out: MIC
[10] = M. pneumoniae isolate 55246, read-out: MIC
[11] = M. pneumoniae isolate 55612, read-out: MIC
[12] = M. pneumoniae isolate 57807, read-out: MIC
[13] = M. pneumoniae isolate 58188, read-out: MIC
[14] = M. pneumoniae isolate 58772, read-out: MIC
[15] = M. pneumoniae isolate 59597, read-out: MIC
[16] = M. pneumoniae isolate 59598, read-out: MIC

CN(C)[C@@H]1C(O)=C(C(N)=O)C(=O)[C@@]2(O)C(O)=C3C(=O)c4c(O)cccc4[C@@](C)(O)[C@H]3C[C@@H]12 [Tetracycline]
MICs for isolates with tetM (Mycoplasma hominis): 32 µg/mL

C[C@@H]1CN2c3c(cc4c(N5C(=O)OC[C@@H]5C)noc4c3F)CC3(C(=O)NC(=O)NC3=O)[C@H]2[C@H](C)O1 [Compound 1, (2R,4S,4aS)-11-fluoro-2,4-dimethyl-8-[(4S)-4-methyl-2-oxo-1,3-oxazolidin-3-yl]-1,2,4,4a-tetrahydro-2′H,6H-spiro[1,4-oxazino[4,3-a][1,2]oxazolo[4,5-g]quinoline-5,5′-pyrimidine]-2′,4′,6′(1′H,3′H)-trione]
MIC90 relative to levofloxacin (fold greater) (Mycoplasma hominis): 16 fold
MIC Range (Mycoplasma hominis): 1 to 8 µg/mL
effect of presence of tetM on MICs (Mycoplasma hominis): not affected by the presence of tetM
MIC50 (Mycoplasma hominis; Metamycoplasma hominis): 2 µg/mL (≈ 4.1 µM)
MIC90 (Mycoplasma hominis; Metamycoplasma hominis): 4 µg/mL (≈ 8.21 µM)
MIC (Mycoplasma hominis; Metamycoplasma hominis, read-out: maximum MIC value): 8 µg/mL (≈ 16.4 µM)
MIC90 relative to doxycycline (fold higher) (Mycoplasma pneumoniae; M. pneumoniae): 4 fold
MIC (Mycoplasma pneumoniae; [4]): 0.5 µg/mL (≈ 1.03 µM)
MIC (Mycoplasma pneumoniae; [5]): 0.5 µg/mL (≈ 1.03 µM)
MIC (Mycoplasma pneumoniae; [6]): 0.5 µg/mL (≈ 1.03 µM)
MIC (Mycoplasma pneumoniae; [7]): 0.5 µg/mL (≈ 1.03 µM)
MIC (Mycoplasma pneumoniae; [8]): 0.5 µg/mL (≈ 1.03 µM)
MIC (Mycoplasma pneumoniae; [9]): 0.5 µg/mL (≈ 1.03 µM)
MIC (Mycoplasma pneumoniae; [10]): 1 µg/mL (≈ 2.05 µM)
MIC (Mycoplasma pneumoniae; [11]): 1 µg/mL (≈ 2.05 µM)
MIC (Mycoplasma pneumoniae; [12]): 0.5 µg/mL (≈ 1.03 µM)
MIC (Mycoplasma pneumoniae; [13]): 0.5 µg/mL (≈ 1.03 µM)
MIC (Mycoplasma pneumoniae; [14]): 0.5 µg/mL (≈ 1.03 µM)
MIC (Mycoplasma pneumoniae; [15]): 0.5 µg/mL (≈ 1.03 µM)
MIC (Mycoplasma pneumoniae; [16]): 0.5 µg/mL (≈ 1.03 µM)
MIC50 (Mycoplasma pneumoniae): 0.5 µg/mL (≈ 1.03 µM)
MIC90 (Mycoplasma pneumoniae): 1 µg/mL (≈ 2.05 µM)
in vitro potency against macrolide-resistant versus macrolide-susceptible isolates (Mycoplasma pneumoniae; two macrolide-resistant M. pneumoniae isolates): maintained in vitro potency
MIC50 (Yersinia pestis): 4 µg/mL (≈ 8.21 µM)
MIC50 (Yersinia pestis; Yersinia pestis): 2 µg/mL (≈ 4.1 µM)
MIC (Mycoplasma genitalium): 0.5 µg/mL (≈ 1.03 µM)
MIC (Mycoplasma genitalium; ATCC33530): 0.5 µg/mL (≈ 1.03 µM)
MIC (Mycoplasma genitalium; ATCC49895): 1 µg/mL (≈ 2.05 µM)
MIC (Mycoplasma genitalium; ATCC49899): 0.5 µg/mL (≈ 1.03 µM)
MIC (Brucella melitensis): 16 µg/mL (≈ 32.8 µM)
MIC (Brucella melitensis; Brucella melitensis): 8 µg/mL (≈ 16.4 µM)
MIC90 (Burkholderia mallei): 32 µg/mL (≈ 65.6 µM)
MIC (Brucella suis): 1 µg/mL (≈ 2.05 µM)
MIC Range (Brucella suis): 1 to 2 µg/mL
MIC (Brucella suis; Brucella suis): 2 µg/mL (≈ 4.1 µM)
MIC50 (Brucella suis; Brucella suis): 1 µg/mL (≈ 2.05 µM)
MIC90 (Brucella suis; Brucella suis): 2 µg/mL (≈ 4.1 µM)
MIC90 (Bacillus anthracis): 1 µg/mL (≈ 2.05 µM)
MIC Range (Bacillus anthracis): 0.12 to 1 µg/mL and 0.12 to 4 µg/mL
MIC50 (Bacillus anthracis; Bacillus anthracis): 0.25 µg/mL (≈ 0.513 µM)
MIC90 (Bacillus anthracis; Bacillus anthracis): 0.5 µg/mL (≈ 1.03 µM)
MIC (Francisella tularensis): 8 µg/mL (≈ 16.4 µM)
MIC Range (Francisella tularensis): 8 to 16 µg/mL
MIC (Francisella tularensis; Francisella tularensis): 16 µg/mL (≈ 32.8 µM)
MIC50 (Francisella tularensis; Francisella tularensis): 16 µg/mL (≈ 32.8 µM)
MIC90 (Francisella tularensis; Francisella tularensis): 16 µg/mL (≈ 32.8 µM)
MIC [1]: 64 µg/mL (≈ 131 µM)
MIC90 [1]: >64 µg/mL
MIC ([1]; Burkholderia pseudomallei): 32 µg/mL (≈ 65.6 µM)
MIC50 ([1]; Burkholderia pseudomallei): 32 µg/mL (≈ 65.6 µM)
MIC90 ([1]; Burkholderia pseudomallei): 64 µg/mL (≈ 131 µM)
MIC90 potency relative to azithromycin (fold more potent / lower MIC90) (Ureaplasma species [2]): 4 fold
MIC range for isolates containing tetM (Ureaplasma species [2]): 0.5 to 2 µg/mL
difference in MICs, levofloxacin-resistant versus levofloxacin-susceptible isolates (Ureaplasma species [2]): no difference
MIC50 (Ureaplasma species [2]): 0.5 µg/mL (≈ 1.03 µM)
MIC90 (Ureaplasma species [2]): 1 µg/mL (≈ 2.05 µM)
MIC (Ureaplasma species [2]): 0.5 µg/mL (≈ 1.03 µM)

O=C(N[C@H](CO)[C@H](O)c1ccc([N+](=O)[O-])cc1)C(Cl)Cl [Chloramphenicol]
MIC (Bacillus anthracis): 4 µg/mL (≈ 12.4 µM)
MIC (Bacillus anthracis; Bacillus anthracis): 8 µg/mL (≈ 24.8 µM)
MIC (Francisella tularensis): 1 µg/mL (≈ 3.09 µM)
MIC (Francisella tularensis; Francisella tularensis): 2 µg/mL (≈ 6.19 µM)

CC[C@H]1OC(=O)[C@H](C)C(=O)[C@H](C)[C@@H](O[C@@H]2O[C@H](C)C[C@H](N(C)C)[C@H]2O)[C@](C)(OC)C[C@@H](C)C(=O)[C@H](C)[C@H]2N(CCCCn3cnc(-c4cccnc4)c3)C(=O)O[C@]12C [Telithromycin]
MIC Limits for Quality Control Strain (Ureaplasma species [3]): 0.125 to 1 µg/mL

CC[C@H]1OC(=O)[C@H](C)[C@@H](O[C@H]2C[C@@](C)(OC)[C@@H](O)[C@H](C)O2)[C@H](C)[C@@H](O[C@@H]2O[C@H](C)C[C@H](N(C)C)[C@H]2O)[C@](C)(O)C[C@@H](C)CN(C)[C@H](C)[C@@H](O)[C@]1(C)O [Azithromycin]
MIC Range (Mycoplasma hominis): 1 to 8 µg/mL
MIC50 (Mycoplasma hominis; Metamycoplasma hominis): 4 µg/mL (≈ 5.34 µM)
MIC90 (Mycoplasma hominis; Metamycoplasma hominis): 4 µg/mL (≈ 5.34 µM)
MIC (Mycoplasma pneumoniae; [4]): < 0.001 µg/mL
MIC (Mycoplasma pneumoniae; [5]): < 0.001 µg/mL
MIC (Mycoplasma pneumoniae; [6]): < 0.001 µg/mL
MIC (Mycoplasma pneumoniae; [7]): < 0.001 µg/mL
MIC (Mycoplasma pneumoniae; [8]): 32 µg/mL (≈ 42.7 µM)
MIC (Mycoplasma pneumoniae; [9]): 16 µg/mL (≈ 21.4 µM)
MIC (Mycoplasma pneumoniae; [10]): < 0.001 µg/mL
MIC (Mycoplasma pneumoniae; [11]): < 0.001 µg/mL
MIC (Mycoplasma pneumoniae; [12]): < 0.001 µg/mL
MIC (Mycoplasma pneumoniae; [13]): < 0.001 µg/mL
MIC (Mycoplasma pneumoniae; [14]): < 0.001 µg/mL
MIC (Mycoplasma pneumoniae; [15]): < 0.001 µg/mL
MIC (Mycoplasma pneumoniae; [16]): < 0.001 µg/mL
MIC50 (Mycoplasma pneumoniae): < 0.001 µg/mL
MIC90 (Mycoplasma pneumoniae): 16 µg/mL (≈ 21.4 µM)
MIC Range (Mycoplasma pneumoniae): <0.001-32 ^ μg/mL
MIC (Mycoplasma pneumoniae; most M. pneumoniae isolates, read-out: MICs of most isolates): < 0.001 µg/mL
MICs of two macrolide-resistant strains (Mycoplasma pneumoniae; two M. pneumoniae strains with mutations in 23S ribosomal RNA): 32 µg/mL
MIC (Mycoplasma pneumoniae; two M. pneumoniae strains with mutations in 23S ribosomal RNA, read-out: MICs of two macrolide-resistant strains): 16 µg/mL (≈ 21.4 µM)
MIC Range (Mycoplasma genitalium): <0.001 µg/mL
MIC (Mycoplasma genitalium): < 0.001 µg/mL
MIC (Mycoplasma genitalium; ATCC33530): < 0.001 µg/mL
MIC (Mycoplasma genitalium; ATCC49895): < 0.001 µg/mL
MIC (Mycoplasma genitalium; ATCC49899): < 0.001 µg/mL
MIC Limits for Quality Control Strain (Ureaplasma species [3]): 0.5 to 8 µg/mL
MIC Range (Ureaplasma species [2]): 1 to 32 µg/mL
MIC50 (Ureaplasma species [2]): 2 µg/mL (≈ 2.67 µM)
MIC90 (Ureaplasma species [2]): 4 µg/mL (≈ 5.34 µM)
MIC (Ureaplasma species [2]): 2 µg/mL (≈ 2.67 µM)

C[C@H]1c2cccc(O)c2C(=O)C2=C(O)[C@]3(O)C(=O)C(C(N)=O)=C(O)[C@@H](N(C)C)[C@@H]3[C@@H](O)[C@@H]21 [Doxycycline]
MIC Range (Mycoplasma hominis): 0.016 to 4 µg/mL
MICs for isolates with tetM (Mycoplasma hominis): 4 µg/mL
MICs for isolates without tetM (Mycoplasma hominis): 0.016 to 0.063 µg/mL
MIC50 (Mycoplasma hominis; Metamycoplasma hominis): 0.032 µg/mL (≈ 0.072 µM)
MIC90 (Mycoplasma hominis; Metamycoplasma hominis): 4 µg/mL (≈ 9 µM)
MIC (Mycoplasma pneumoniae; [4]): 0.5 µg/mL (≈ 1.13 µM)
MIC (Mycoplasma pneumoniae; [5]): 0.25 µg/mL (≈ 0.563 µM)
MIC (Mycoplasma pneumoniae; [6]): 0.25 µg/mL (≈ 0.563 µM)
MIC (Mycoplasma pneumoniae; [7]): 0.25 µg/mL (≈ 0.563 µM)
MIC (Mycoplasma pneumoniae; [8]): 0.25 µg/mL (≈ 0.563 µM)
MIC (Mycoplasma pneumoniae; [9]): 0.25 µg/mL (≈ 0.563 µM)
MIC (Mycoplasma pneumoniae; [10]): 0.25 µg/mL (≈ 0.563 µM)
MIC (Mycoplasma pneumoniae; [11]): 0.25 µg/mL (≈ 0.563 µM)
MIC (Mycoplasma pneumoniae; [12]): 0.25 µg/mL (≈ 0.563 µM)
MIC (Mycoplasma pneumoniae; [13]): 0.125 µg/mL (≈ 0.281 µM)
MIC (Mycoplasma pneumoniae; [14]): 0.5 µg/mL (≈ 1.13 µM)
MIC (Mycoplasma pneumoniae; [15]): 0.25 µg/mL (≈ 0.563 µM)
MIC (Mycoplasma pneumoniae; [16]): 0.25 µg/mL (≈ 0.563 µM)
MIC50 (Mycoplasma pneumoniae): 0.25 µg/mL (≈ 0.563 µM)
MIC90 (Mycoplasma pneumoniae): 0.25 µg/mL (≈ 0.563 µM)
MIC Range (Mycoplasma pneumoniae): 0.125 to 0.5 µg/mL
MIC (Yersinia pestis): 1 µg/mL (≈ 2.25 µM)
MIC (Yersinia pestis; Yersinia pestis): 0.5 µg/mL (≈ 1.13 µM)
MIC Range (Mycoplasma genitalium): 0.25 to 1 µg/mL
MIC (Mycoplasma genitalium): 1 µg/mL (≈ 2.25 µM)
MIC (Mycoplasma genitalium; ATCC33530): 0.25 µg/mL (≈ 0.563 µM)
MIC (Mycoplasma genitalium; ATCC49895): 0.25 µg/mL (≈ 0.563 µM)
MIC (Mycoplasma genitalium; ATCC49899): 0.5 µg/mL (≈ 1.13 µM)
MIC (Brucella melitensis): 0.125 µg/mL (≈ 0.281 µM)
MIC (Brucella melitensis; Brucella melitensis): 0.25 µg/mL (≈ 0.563 µM)
MIC (Brucella suis): 0.125 µg/mL (≈ 0.281 µM)
MIC (Brucella suis; Brucella suis): 0.063 µg/mL (≈ 0.142 µM)
MIC (Bacillus anthracis; Bacillus anthracis): ≤ 0.031 µg/mL
MIC90 activity relative to Compound 1 (fold more active) (Ureaplasma species [2]): 8 fold
MIC Range (Ureaplasma species [2]): 0.016 to 8 µg/mL
MIC range for isolates containing tetM (Ureaplasma species [2]): 4 to 8 µg/mL
MIC50 (Ureaplasma species [2]): 0.125 µg/mL (≈ 0.281 µM)
MIC90 (Ureaplasma species [2]): 8 µg/mL (≈ 18 µM)
MIC (Ureaplasma species [2]): 8 µg/mL (≈ 18 µM)
MIC90 (Ureaplasma species [2]; read-out: MIC90 for doxycycline-susceptible organisms): 0.125 µg/mL (≈ 0.281 µM)
